Reference: patent US10435402B2, “Bicyclic compounds, compositions and medicinal applications thereof” (Advinus Therapeutics Limited, priority 2015, dated 2019)

The compounds below were run against T1, GAL4-DBD/RORγ-LBD (Homo sapiens, UniProt P51449) (assay: RORγt transactivation reporter assay (GAL4-DBD/RORγ-LBD, luciferase read out)). Conditions: HEK293T cells, GAL4-UAS luciferase reporter, overnight (18-24 hours) incubation.
T1 construct: expressed in transfected cells; host or cells: HEK293T
T1 sequence (P51449 269-508 limits assumed): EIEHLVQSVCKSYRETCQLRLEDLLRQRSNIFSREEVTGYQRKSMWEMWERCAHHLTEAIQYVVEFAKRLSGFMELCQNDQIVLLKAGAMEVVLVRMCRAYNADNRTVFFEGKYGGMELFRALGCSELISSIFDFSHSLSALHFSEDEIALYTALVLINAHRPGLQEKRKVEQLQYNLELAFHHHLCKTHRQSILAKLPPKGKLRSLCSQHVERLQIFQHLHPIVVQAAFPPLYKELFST
T1 sequence (P04386 1-147 partner limits assumed): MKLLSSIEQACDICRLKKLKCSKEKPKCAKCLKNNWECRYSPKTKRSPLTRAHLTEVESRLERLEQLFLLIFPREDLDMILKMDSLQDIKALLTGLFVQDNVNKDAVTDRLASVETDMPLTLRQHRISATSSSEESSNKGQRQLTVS
Format: cell-based
Method: RORγt Transactivation Reporter Assay Protocol: The inhibition of RORγt activity in cells was evaluated using a GAL4-UAS reporter system in HEK293T cells employing a luciferase read out. RORγt ligand binding domain (LBD) was cloned into the pFN26A (BIND) vector (Promega #[…]) containing yeast GAL4-DBD to form a RORγt LBD-GAL4 DBD fusion construct. This vector also contained a Renilla Luciferase reporter expressed under a SV40 promoter which was used as a control for transfection efficiency. A transcriptional reporter expression construct pGL4.35 (Promega #[…]) was used to monitor RORγt LBD-GAL4 activity. This construct contained nine repeats of GAL4 binding site/upstream activating sequence (UAS) controlling expression of a firefly luciferase reporter Luc2P. When transfected together in cells, the RORγ-LBD-DBD fusion protein drives expression of the luciferase reporter. For the assay, HEK293T cells were plated in a flat bottom 96 well plate at a density of 25,000 cells/well/100 ul of DMEM high glucose medium (Sigma D5648) containing 10% FBS and antibiotic. Cells were incubated overnight at 37 C/5% CO2. The next day, medium from the wells was removed and replaced with 30 ul of OptiMEM® (Invitrogen #31985070). 100 ng each of pBIND RORγ LBD-DBD and pGL4.35 reporter plasmids was transfected in HEK293T cells using Lipofectamine 2000 (Invitrogen #11668-019) where 10 ul of transfection complex was added to the each well. Control transfections were performed with an empty pF[…] vector and pGL4.35 vector. The transfected cells were incubated for 5 hours at 37 C/5% CO2. After incubation, 40 ul of DMEM high glucose medium without FBS, with antibiotic was added to each well. A 10 mM stock solution of test compound prepared in 100% DMSO was first diluted in DMSO and then in DMEM medium without FBS to give the required final compound concentration. Concentration of DMSO in the test compound solution was 0.4%. 20 ul of diluted compound solution was added to each well. Cells were incubated overnight (18-24 hours) at 37 C/5% CO2. The next day, luciferase assay was performed using the Dual Glo® Luciferase Assay System (Promega #E2940). Briefly, medium was removed from the wells and replaced with 40 ul 1× Passive Lysis Buffer (Promega #E1941). Plate was incubated at room temperature on a plate shaker at 1000 rpm for 40 min. After incubation, plate was centrifuged at 1000 rpm for 2 min. 20 ul of the lysate was transferred from each well to that of solid white half area 96 well plate (Costar #3693). Dual Glo® Reagent was thawed to room temperature and 20 ul was added to each well containing lysate. Plate was centrifuged at 1000 rpm/2 min and incubated at room temperature on a plate shaker at 600 rpm/25 min. Firefly luciferase signal was measured on a Tecan Safire2. After measurement, 20 ul of Dual Glo® Stop Glo® Reagent was added to each well. Plate was centrifuged at 1000 rpm/2 min and incubated at room temperature on a plate shaker at 600 rpm/25 min. Renilla luciferase signal was measured on Tecan Safire 2. IC50 values for test compounds were calculated from the normalized luciferase signal data using GraphPad Prism software.

SMILES	IC50 [nM]
CCOC(=O)c1ccc(-c2c(F)c(C(=O)c3c(Cl)ccc(F)c3Cl)n3ccccc23)cc1 [Example B-5, ethyl 4-[3-(2,6-dichloro-3-fluoro-benzoyl)-2-fluoro-indolizin-1-yl]benzoate]	< 500
O=C(O)c1ccc(-c2c(F)c(C(=O)c3c(Cl)ccc(F)c3Cl)n3ccccc23)cc1 [Example B-6, 4-[3-(2,6-dichloro-3-fluoro-benzoyl)-2-fluoro-indolizin-1-yl]benzoic acid]	< 500
Cc1c(-c2ccc(C(=O)O)cc2)c2ccccn2c1C(=O)c1c(Cl)ccnc1Cl [Example C-5, 4-[3-(2,4-dichloropyridine-3-carbonyl)-2-methyl-indolizin-1-yl]benzoic acid]	< 500
Cc1c(-c2ccc(C(=O)O)cc2)c2ccccn2c1C(=O)c1c(Cl)cccc1C(F)(F)F [Example C-7, 4-[3-[2-chloro-6-(trifluoromethyl)benzoyl]-2-methyl-indolizin-1-yl]benzoic acid]	< 500
CCOC(=O)c1ccc(-c2c(C)c(C(=O)c3c(Cl)cccc3C(F)(F)F)n3ccccc23)cc1 [Example C-9, ethyl 4-[3-[2-chloro-6-(trifluoromethyl)benzoyl]-2-methyl-indolizin-1-yl]benzoate]	< 500
CCOC(=O)c1ccc(-c2c(C)c(C(=O)c3c(Cl)ccnc3Cl)n3ccccc23)cc1 [Example C-10, ethyl 4-[3-(2,4-dichloropyridine-3-carbonyl)-2-methyl-indolizin-1-yl]benzoate]	< 5000
CN(C)C(=O)c1ccc2c(-c3ccc(C(=O)O)cc3)cc(C(=O)c3c(Cl)cccc3C(F)(F)F)n2c1 [Example D-1, 4-[3-[2-chloro-6-(trifluoromethyl)benzoyl]-6-(dimethylcarbamoyl)indolizin-1-yl]benzoic acid]	< 500
CN(C)C(=O)c1ccc2c(-c3ccc(C(=O)O)cc3)cc(C(=O)c3c(Cl)cccc3Cl)n2c1 [Example D-2, 4-[3-(2,6-dichlorobenzoyl)-6-(dimethylcarbamoyl)indolizin-1-yl]benzoic acid]	< 500
O=C(O)c1ccc(-c2cc(C(=O)c3c(Cl)cccc3Cl)n3cc(C(=O)N4CCOCC4)ccc23)cc1 [Example D-3, 4-[3-(2,6-dichlorobenzoyl)-6-(morpholine-4-carbonyl)indolizin-1-yl]benzoic acid]	< 1000
O=C(O)c1ccc(-c2cc(C(=O)c3c(Cl)cccc3Cl)n3cc(C(=O)N4CCCCC4)ccc23)cc1 [Example D-4, 4-[3-(2,6-dichlorobenzoyl)-6-(piperidine-1-carbonyl)indolizin-1-yl]benzoic acid]	< 1000
O=C(O)c1ccc(-c2cc(C(=O)c3c(Cl)cccc3Cl)n3cc(C(=O)N4CCCC4)ccc23)cc1 [Example D-5, 4-[3-(2,6-dichlorobenzoyl)-6-(pyrrolidine-1-carbonyl)indolizin-1-yl]benzoic acid]	< 500
O=C(O)c1ccc(-c2cc(C(=O)c3c(Cl)cccc3Cl)n3cc(C(=O)N4CCC4)ccc23)cc1 [Example D-6, 4-[6-(azetidine-1-carbonyl)-3-(2,6-dichlorobenzoyl)indolizin-1-yl]benzoic acid]	< 500
O=C(O)c1ccc(-c2cc(C(=O)c3c(Cl)cccc3Cl)n3cc(C(=O)NCCO)ccc23)cc1 [Example D-7, 4-[3-(2,6-dichlorobenzoyl)-6-(2-hydroxyethylcarbamoyl)indolizin-1-yl]benzoic acid]	> 5000
COCCNC(=O)c1ccc2c(-c3ccc(C(=O)O)cc3)cc(C(=O)c3c(Cl)cccc3Cl)n2c1 [Example D-8, 4-[3-(2,6-dichlorobenzoyl)-6-(2-methoxyethylcarbamoyl)indolizin-1-yl]benzoic acid]	> 5000
O=C(O)c1ccc(-c2cc(C(=O)c3c(Cl)cccc3C(F)(F)F)n3cc(C(=O)N4CCC4)ccc23)cc1 [Example D-11, 4-[6-(azetidine-1-carbonyl)-3-[2-chloro-6-(trifluoromethyl)benzoyl]indolizin-1-yl]benzoic acid]	< 500
COC1CN(C(=O)c2ccc3c(-c4ccc(C(=O)O)cc4)cc(C(=O)c4c(Cl)cccc4Cl)n3c2)C1 [Example D-14, 4-[3-(2,6-dichlorobenzoyl)-6-(3-methoxyazetidine-1-carbonyl)indolizin-1-yl]benzoic acid]	< 500
O=C(c1c(Cl)ccc(F)c1Cl)c1cc(-c2ccc(C(=O)N3CCOCC3)cc2)c2ccccn12 [Example F-3, [4-[3-(2,6-dichloro-3-fluoro-benzoyl)indolizin-1-yl]phenyl]-morpholino-methanone]	> 5000
CCS(=O)(=O)N1CC=C(c2cc(C(=O)c3c(Cl)cccc3Cl)n3ccccc23)CC1 [Example G-1, (2,6-dichlorophenyl)-[1-(1-ethylsulfonyl-3,6-dihydro-2H-pyridin-4-yl)indolizin-3-yl]methanone]	> 5000

Continued, values first:

IC50 [nM]	SMILES
< 500	CCOC(=O)c1ccc(-c2c(F)c(C(=O)c3c(Cl)cccc3Cl)n3ccccc23)cc1 [Example B-1, Ethyl 4-[3-(2,6-dichlorobenzoyl)-2-fluoro-indolizin-1-yl]benzoate]
< 500	O=C(O)c1ccc(-c2c(F)c(C(=O)c3c(Cl)cccc3Cl)n3ccccc23)cc1 [Example B-2, 4-[3-(2,6-dichlorobenzoyl)-2-fluoro-indolizin-1-yl]benzoic acid]
< 500	COC(=O)c1ccc(-c2c(F)c(C(=O)c3c(Cl)cccc3Cl)n3ccccc23)c(F)c1 [Example B-3, methyl 4-[3-(2,6-dichlorobenzoyl)-2-fluoro-indolizin-1-yl]-3-fluoro-benzoate]
< 500	O=C(O)c1ccc(-c2c(F)c(C(=O)c3c(Cl)cccc3Cl)n3ccccc23)c(F)c1 [Example B-4, 4-[3-(2,6-dichlorobenzoyl)-2-fluoro-indolizin-1-yl]-3-fluoro-benzoic acid]
< 500	CCOC(=O)c1ccc(-c2c(C)c(C(=O)c3c(Cl)cccc3Cl)n3ccccc23)c(F)c1 [Example C-1, ethyl 4-[3-(2,6-dichlorobenzoyl)-2-methyl-indolizin-1-yl]-3-fluoro-benzoate]
< 500	Cc1c(-c2ccc(C(=O)O)cc2F)c2ccccn2c1C(=O)c1c(Cl)cccc1Cl [Example C-2, 4-[3-(2,6-dichlorobenzoyl)-2-methyl-indolizin-1-yl]-3-fluoro-benzoic acid]
< 500	CCOC(=O)c1ccc(-c2c(C)c(C(=O)c3c(Cl)cccc3Cl)n3ccccc23)cc1 [Example C-3, ethyl 4-[3-(2,6-dichlorobenzoyl)-2-methyl-indolizin-1-yl]benzoate]
< 500	Cc1c(-c2ccc(C(=O)O)cc2)c2ccccn2c1C(=O)c1c(Cl)cccc1Cl [Example C-4, 4-[3-(2,6-dichlorobenzoyl)-2-methyl-indolizin-1-yl]benzoic acid]
< 500	Cc1c(-c2ccc(C(=O)O)cc2F)c2ccccn2c1C(=O)c1c(Cl)cccc1C(F)(F)F [Example C-6, 4-[3-[2-chloro-6-(trifluoromethyl)benzoyl]-2-methyl-indolizin-1-yl]-3-fluoro-benzoic acid]
< 500	COC(=O)c1ccc(-c2c(C)c(C(=O)c3c(Cl)cccc3C(F)(F)F)n3ccccc23)c(F)c1 [Example C-8, methyl 4-[3-[2-chloro-6-(trifluoromethyl)benzoyl]-2-methyl-indolizin-1-yl]-3-fluoro-benzoate]
< 500	COC(=O)c1ccc(-c2cc(Oc3c(Cl)cccc3Cl)n3ccccc23)c(F)c1 [Example E-1, methyl 4-[3-(2,6-dichlorophenoxy)indolizin-1-yl]-3-fluoro-benzoate]
< 5000	O=C(O)c1ccc(-c2cc(Oc3c(Cl)cccc3Cl)n3ccccc23)c(F)c1 [Example E-2, 4-[3-(2,6-dichlorophenoxy)indolizin-1-yl]-3-fluoro-benzoic acid]
> 5000	CNC(=O)c1ccc(-c2nc(C(=O)c3c(Cl)ccc(F)c3Cl)n3ccccc23)cc1 [Example F-1, 4-[3-(2,6-dichloro-3-fluoro-benzoyl)imidazo[1,5-a]pyridin-1-yl]-N-methyl-benzamide]
